Assays:
[1] = tested on: K-562; assay: cells; assay type: cell-based; settings: K-562 (Leukemia)
[2] = tested on: MOLT-4; assay: cells; assay type: cell-based; settings: MOLT-4 (Leukemia)
[3] = tested on: RPMI-8226; assay: cells; assay type: cell-based; settings: RPMI-8226 (Leukemia)
[4] = tested on: HOP-92; assay: cells; assay type: cell-based; settings: HOP-92 (NSCLC)
[5] = tested on: NCI-H522; assay: cells; assay type: cell-based; settings: NCI-H522 (NSCLC)
[6] = tested on: HCT-116; assay: cells; assay type: cell-based; settings: HCT-116 (Colon Cancer)
[7] = tested on: KM12; assay: cells; assay type: cell-based; settings: KM12 (Colon Cancer)
[8] = tested on: U251; assay: cells; assay type: cell-based; settings: U251 (CNS Cancer)
[9] = tested on: OVCAR-5; assay: cells; assay type: cell-based; settings: OVCAR-5 (Ovarian Cancer)
[10] = tested on: NCI/ADR-RES; assay: cells; assay type: cell-based; settings: NCI/ADR-RES (Ovarian Cancer)
[11] = tested on: TK-10; assay: cells; assay type: cell-based; settings: TK-10 (Renal Cancer)
[12] = tested on: UO-31; assay: cells; assay type: cell-based; settings: UO-31 (Renal Cancer)
[13] = tested on: DU-145; assay: cells; assay type: cell-based; settings: DU-145 (Prostate Cancer)
[14] = tested on: T-47D; assay: cells; assay type: cell-based; settings: T-47D (Breast Cancer)
[15] = tested on: MDA-MB-468; assay: cells; assay type: cell-based; settings: MDA-MB-468 (Breast Cancer)
[16] = biological target: PYK2 (Homo sapiens, UniProt Q14289); assay: Inhibition of enzymatic kinase activity (LANCE Ulight); assay type: biochemical; parameters: Purified full-length human SYK, ZAP70, PIM1, PYK2; purchased Carna Biosciences; settings: at 1 μM concentration; read-out: PYK2 percentage inhibition
PYK2, sequence (Q14289 whole entry): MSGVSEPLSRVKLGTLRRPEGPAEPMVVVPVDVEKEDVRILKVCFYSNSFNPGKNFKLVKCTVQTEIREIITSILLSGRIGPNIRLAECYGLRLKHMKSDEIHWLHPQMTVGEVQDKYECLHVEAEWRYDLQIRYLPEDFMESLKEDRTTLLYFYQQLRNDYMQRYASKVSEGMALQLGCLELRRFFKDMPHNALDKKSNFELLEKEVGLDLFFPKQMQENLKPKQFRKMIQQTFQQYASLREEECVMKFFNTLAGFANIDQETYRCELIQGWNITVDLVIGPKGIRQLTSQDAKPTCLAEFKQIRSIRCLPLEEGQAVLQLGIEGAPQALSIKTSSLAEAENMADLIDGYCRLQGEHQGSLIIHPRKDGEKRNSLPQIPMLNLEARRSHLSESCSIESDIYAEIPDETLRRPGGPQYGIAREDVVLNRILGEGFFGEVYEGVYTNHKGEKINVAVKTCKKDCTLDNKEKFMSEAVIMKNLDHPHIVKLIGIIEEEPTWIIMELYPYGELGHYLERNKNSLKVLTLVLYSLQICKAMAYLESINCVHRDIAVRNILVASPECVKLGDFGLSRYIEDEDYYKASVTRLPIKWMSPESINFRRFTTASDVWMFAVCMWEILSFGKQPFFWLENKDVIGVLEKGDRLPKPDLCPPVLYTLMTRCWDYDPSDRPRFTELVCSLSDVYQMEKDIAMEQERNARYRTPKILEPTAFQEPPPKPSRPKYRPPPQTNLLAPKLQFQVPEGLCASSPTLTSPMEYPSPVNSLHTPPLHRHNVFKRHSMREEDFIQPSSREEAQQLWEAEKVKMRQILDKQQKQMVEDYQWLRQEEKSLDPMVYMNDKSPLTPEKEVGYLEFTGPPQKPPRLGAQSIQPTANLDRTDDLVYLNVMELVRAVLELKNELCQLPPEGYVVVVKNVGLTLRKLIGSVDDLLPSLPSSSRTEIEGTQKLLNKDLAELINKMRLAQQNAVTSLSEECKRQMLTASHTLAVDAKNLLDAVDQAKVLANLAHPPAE
Method: (§1) Inhibition of Enzymatic SYK, ZAP70, PYK2, FAK, PIM1, RET, FLT3, JAK2 and LRRK2 Kinase Activity
(§2) Compounds of the invention were initially diluted to 10 mM in 100% DMSO (CALBIOCHEM™) for storage and made into kinase buffer solution to create a compound concentration ranging from 1 uM and 10 uM. Serial dilutions of compounds of the invention were dispensed into a 96-well plate (GREINER BIOSCIENCES™) at 6 μL each. Purified full-length human SYK, ZAP70, PIM1, PYK2 and truncated human FAK, RET, FLT3, JAK2, and LRRK2 (CARNA BIOSCIENCES™) were diluted in kinase buffer and added to the compound solutions and pre-incubated for 30 minutes at room temperature (1 hour for PYK2). […] The reaction mixture was incubated for 1 hour (2 hours for PYK2). Following the incubation, the stop solution made with EDTA, water, and Lance detection buffer ([…]™) was added (12 μL each) to stop phosphorylation.

[17] = biological target: SYK (Homo sapiens, UniProt P43405); assay: as above; assay type: biochemical; parameters: Purified full-length human SYK, ZAP70, PIM1, PYK2; purchased Carna Biosciences; settings: at 1 μM concentration; read-out: SYK percentage inhibition
Method: as §1, §2

[18] = Homo sapiens, read-out: LC50 (the source's name)

SMILES: O=c1[nH]ccc2nc(N3CCC(O)CC3)nc(Nc3cccc(C(F)(F)F)c3)c12 [Compound 6, 2-(4-hydroxypiperidin-1-yl)-4-(3-(trifluoromethyl)phenylamino)pyrido[4,3-d]pyrimidine-5(6H)-one]
- GI50 ([1]; Homo sapiens, K562): 3.16 µM
- IC50 ([1]; Homo sapiens, K562): 3.98 µM
- CC50 ([1]; Homo sapiens, K562, read-out: LC50 (the source's name)): 100 µM
- TGI [1]: 100 µM
- GI50 ([2]; Homo sapiens): 2.24 µM
- IC50 ([2]; Homo sapiens): 3.63 µM
- LC50 ([2]; Homo sapiens): 100 µM
- TGI [2]: 7.76 µM
- GI50 ([3]; Homo sapiens): 2.95 µM
- IC50 ([3]; Homo sapiens): 5.5 µM
- CC50 [3, 18]: 100 µM
- TGI [3]: 91.2 µM
- TGI [4]: 100 µM
- GI50 ([4]; Homo sapiens): 100 µM
- IC50 ([4]; Homo sapiens): ≥ 100 µM
- CC50 [4, 18]: 100 µM
- GI50 ([5]; Homo sapiens): 2.34 µM
- IC50 ([5]; Homo sapiens): 7.59 µM
- CC50 [5, 18]: 34.7 µM
- TGI [5]: 10 µM
- TGI [6]: 12.3 µM
- GI50 ([6]; Homo sapiens): 0.871 µM
- IC50 ([6]; Homo sapiens): 1.32 µM
- CC50 [6, 18]: 75.9 µM
- GI50 ([7]; Homo sapiens): 1.45 µM
- IC50 ([7]; Homo sapiens): 2.69 µM
- CC50 [7, 18]: 24 µM
- TGI [7]: 5.37 µM
- GI50 ([8]; Homo sapiens, U-251): 6.17 µM
- IC50 ([8]; Homo sapiens, U-251): 11.7 µM
- CC50 ([8]; Homo sapiens, U-251, read-out: LC50 (the source's name)): 100 µM
- TGI [8]: 100 µM
- GI50 ([9]; Homo sapiens): 28.2 µM
- IC50 ([9]; Homo sapiens): 74.1 µM
- CC50 [9, 18]: 100 µM
- TGI [9]: 93.3 µM
- GI50 ([10]; Homo sapiens): 2.34 µM
- IC50 ([10]; Homo sapiens): 4.37 µM
- CC50 [10, 18]: 100 µM
- TGI [10]: 7.41 µM
- GI50 ([11]; Homo sapiens): 6.03 µM
- IC50 ([11]; Homo sapiens): 36.3 µM
- CC50 [11, 18]: 100 µM
- TGI [11]: 44.7 µM
- GI50 ([12]; Homo sapiens): 0.776 µM
- IC50 ([12]; Homo sapiens): 16.2 µM
- CC50 [12, 18]: 100 µM
- TGI [12]: 22.9 µM
- TGI [13]: 19.5 µM
- GI50 ([13]; Homo sapiens): 1.55 µM
- IC50 ([13]; Homo sapiens): 6.03 µM
- CC50 [13, 18]: 100 µM
- GI50 ([14]; Homo sapiens, T47D): 3.09 µM
- IC50 ([14]; Homo sapiens, T47D): 8.51 µM
- CC50 ([14]; Homo sapiens, T47D, read-out: LC50 (the source's name)): 100 µM
- TGI [14]: 26.3 µM
- GI50 ([15]; Homo sapiens): 1.78 µM
- IC50 ([15]; Homo sapiens): 4.68 µM
- CC50 [15, 18]: 100 µM
- TGI [15]: 7.08 µM
- inhibition at 1 µM [16]: 83%
- inhibition at 1 µM [17]: 88%
